Results taken from patent US7482455B2, “Chemical compounds” (SmithKline Beecham Corporation, priority 2002, dated 2009).
Counter-ions that a name gives are not always drawn.

What follows are compounds tested against T1, hYAK3 (Homo sapiens, UniProt O43781) (assay: YAK3 Scintillation Proximity Assay using Ser164 of myelin basic protein as the phosphoacceptor (kinase assay of purified hYAK3)). Details: purified GST-hYak3-His6 (residues 124-526), 4 nM; 0.001 mM ATP; 4 μM Ser164 peptide; 2 hours at room temperature; compounds 50 μM to 0.5 nM.
T1 construct: containing amino acid residues 124-526 of human YAK3; GST (N); His6 (C); made in house; host or cells: baculovirus expression system in Sf9 cells
T1 sequence (O43781 124-526): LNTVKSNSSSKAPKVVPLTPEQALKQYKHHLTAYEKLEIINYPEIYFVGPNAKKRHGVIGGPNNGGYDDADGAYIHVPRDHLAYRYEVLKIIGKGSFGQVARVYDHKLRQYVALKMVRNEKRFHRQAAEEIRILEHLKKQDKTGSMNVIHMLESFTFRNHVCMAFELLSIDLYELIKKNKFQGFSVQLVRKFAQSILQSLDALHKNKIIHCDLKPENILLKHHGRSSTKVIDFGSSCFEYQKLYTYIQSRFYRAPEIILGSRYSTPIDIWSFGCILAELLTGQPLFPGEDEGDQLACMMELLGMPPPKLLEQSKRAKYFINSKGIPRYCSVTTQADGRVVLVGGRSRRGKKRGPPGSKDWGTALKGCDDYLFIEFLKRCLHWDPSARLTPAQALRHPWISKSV
Type: biochemical
Protocol: YAK3 Scintillation Proximity Assays Using Ser164 of Myelin Basic Protein as the Phosphoacceptor
Source of Ser164 Substrate Peptide:
The biotinylated Ser164, S164A peptide(Biotinyl -LGGRDSRAGS*PMARR—OH), sequence derived from the C-terminus of bovine myelin basic protein (MBP) with Ser162 substituted as Ala162, was purchased from California Peptide Research Inc. (Napa, Calif.), and its purity was determined by HPLC. Phosphorylation occurs at position 164 (marked S* above). The calculated molecular mass of the peptide was 2166 dalton. Solid sample was dissolved at 10 mM in DMSO, aliquoted, and stored at −20° C. until use.
hYAK3: Glutathione-S-Transferase (GST)-hYak3-His6 containing amino acid residues 124-526 of human YAK3 was purified from baculovirus expression system in Sf9 cells using Glutathione Sepharose 4B column chromatography followed by Ni-NTA-Agarose column chromatography. Purity greater than 65% typically was achieved. Samples, in 50 mM Tris, 150 mM NaCl, 10% glycerol, 0.1% Triton, 250 mM imidazole, 10 mM β-mercapto ethanol, pH 8.0.—
were stored at −80° C. until use.
Kinase Assay of Purified hYAK3:
Assays were performed in 96 well (Costar, Catalog No. 3789) or 384 well plates (Costar, Catalog No. 3705). Reaction (in 20, 25, or 40 μl volume) mix contained in final concentrations 25 mM Hepes buffer, pH 7.4; 10 mM MgCl2; 10 mM β-mercapto ethanol; 0.0025% Tween-20; 0.001 mM ATP, 0.1 ? Ci of [ ? -^33P]ATP; purified hYAK3 (7-14 ng/assay; 4 nM final); and 4 μM Ser164 peptide. Compounds, titrated in DMSO, were evaluated at concentrations ranging from 50 μM to 0.5 nM. […] Reactions were incubated for 2 hours at room temperature and were stopped by a 75 ul addition of […] Streptavidin Scintillation Proximity beads (Amersham Pharmacia Biotech, Catalog No. RPNQ 0007) in PBS, pH 7.4, 10 mM EDTA, 0.1% Triton X-100, 1 mM ATP. Under the assay conditions defined above, the Km(apparent) for ATP was determined to be 7.2+/−2.4 μM. Assay results are depicted in Table 1.

Structure (SMILES) | IC50
COc1ccc2cc(C(=O)O)c(NCCCN)nc2c1 [Example 2, 2-(3-amino-propylamino)-7-methoxy-quinoline-3-carboxylic acid] | < 1 µM
COc1ccc2cc(C(=O)O)c(NCc3ccccc3)nc2c1 [Example 3, 2-benzylamino-7-methoxy-quinoline-3-carboxylic acid] | < 1 µM
COc1ccc2cc(C(=O)O)c(NCCc3ccccc3)nc2c1 [Example 4, 7-methoxy-2-phenethylamino-quinoline-3-carboxylic acid] | < 1 µM
COc1ccc2cc(C(=O)O)c(NCCc3ccncc3)nc2c1 [Example 5, 7-methoxy-2-(2-pyridin-4-yl-ethylamino)-quinoline-3-carboxylic acid] | < 1 µM
COc1ccc2cc(C(=O)O)c(NCCCNC(=O)OC(C)(C)C)nc2c1 [Example 1, 2-(3-tert-butoxycarbonylamino-propylamino)-7-methoxy-quinoline-3-carboxylic acid] | 1 to 10 µM

Results, then the compound that gave them:

IC50 | Structure (SMILES)
< 1 µM | COc1ccc2cc(C(=O)O)c(NC3Cc4ccccc4C3)nc2c1 [Example 7, 2-(indan-2-ylamino)-7-methoxy-quinoline-3-carboxylic acid]
1 to 10 µM | COc1ccc2cc(C(=O)O)c(NCCCN3CCOCC3)nc2c1 [Example 8, 7-methoxy-2-(3-morpholin-4-yl-propylamino)-quinoline-3-carboxylic acid]
< 1 µM | O=C(O)c1cc2ccc(O)cc2nc1Nc1ccccc1Cl [Example 12, 2-(2-Chloro-phenylamino)-7-hydroxy-quinoline-3-carboxylic acid]
< 1 µM | COc1ccc2cc(C(=O)O)c(NCCN(C)C)nc2c1 [Example 6, 2-(2-dimethylamino-ethylamino)-7-methoxy-quinoline-3-carboxylic acid hydrochloride]
